Measured values: PMC10535389, “Can Pharmaceutical Excipients Threaten the Aquatic Environment? A Risk Assessment Based on the Microtox® Biotest” (Molecules, 2023)
≈ marks a conversion by molar mass, not a printed value. Where “and” joins values, the source holds several entries; their conditions need not be identical. Equal entries are not always repeated. Structures can show the parent of a compound that is named as a salt. Where two headings read alike, the source gives them in different places. Marks after values point to notes of the source that are not given here.

Assays:
[1] = tested on: Aliivibrio fischeri (strain NRRL B-11177); set-up: method as in earlier work; conditions: ref [10] (Turek et al., J. Haz. Mat. 399 (2020) 122839), cited from earlier work; for EC50 5 min: 5 min of incubation
[2] = tested on: Aliivibrio fischeri (strain NRRL B-11177); experiment: modified Microtox Basic Solid Phase Test (bioluminescence inhibition); format: cell-based; conditions: for EC50: Aliivibrio fischeri
Experimental: (§1) The bioluminescent marine bacterium Aliivibrio fischeri (strain NRRL B-11177) was used to evaluate the acute toxicity of individual excipients, as well as the API–excipient and excipient–excipient mixtures (Figure 1). The inhibition of bioluminescence was measured using the Microtox® Model 500 Analyzer (Modern Water Inc., New Castle, DE, USA). The modified Microtox® Basic Solid Phase Test protocol was applied, which was described in detail in our previous work; a scheme illustrating the course of the ecotoxicological study is shown in Figure 4. The bioluminescence inhibition of A. fischeri was measured after 5, 15, and 30 min of exposure of the bacterium to each sample and then compared with the light output of a control sample. […] Software™.

[3] = pH values of samples used in Microtox test; format: physicochemical; conditions: sample used in Microtox test
[4] = modified Microtox Basic Solid Phase Test (bioluminescence inhibition); format: cell-based, Aliivibrio fischeri; conditions: Aliivibrio fischeri, Toxicity Category (Based on EC50, 30 min)
Experimental: as §1

[5] = tested on: various aquatic organisms; conditions: ref [16, 17, 18, 19, 20]; cited from earlier work
[6] = NRRLB11177, 0.5 h, 30 min of exposure, 95% confidence interval in brackets, read-out: EC50 30 min
[7] = NRRLB11177, 5 min, read-out: EC50 5 min, 5 min of exposure, 95% confidence interval in brackets
[8] = NRRLB11177, 0.25 h, 15 min of exposure, 95% confidence interval in brackets, read-out: EC50 15 min
[9] = 5 min of exposure, 95% confidence interval in brackets
[10] = 15 min of exposure, 95% confidence interval in brackets
[11] = 30 min of exposure, 95% confidence interval in brackets

Compound	EC50 5 min [1]	EC50 15 min [1]	EC50 [2, 6]	pH [3]	EC50 [2, 7]	EC50 [2, 8]	EC50 at 30 min [4]	EC50 30 min [2, 11]	also measured
CCCCC(=O)N(Cc1ccc(-c2ccccc2-c2nnn[nH]2)cc1)[C@H](C(=O)O)C(C)C [VAL, Valsartan, reference compound]	143.20 µg/mL (≈ 329 µM)	234.83 µg/mL (≈ 539 µM)	150 µg/mL (≈ 346 µM)	4.970	–	–	–	–	–
OC[C@@H](O)[C@@H](O)[C@H](O)[C@H](O)CO [Mannitol]	–	–	4250 µg/mL (≈ 23300 µM)	6.390	12600 µg/mL (≈ 69000 µM)	5400 µg/mL (≈ 29700 µM)	> 100 µg/mL	–	–
OC[C@@H](O)[C@@H](O)[C@H](O)[C@@H](O)CO [Sorbitol]	–	–	–	7.446	–	–	> 100 µg/mL	Non-toxic in tested concentration, hormesis	EC50 5 min [2, 9]: Non-toxic in tested concentration, hormesis; EC50 15 min [2, 10]: Non-toxic in tested concentration, hormesis; EC50 30 min ([2]; 30 min of exposure, 95% confidence interval in brackets, listed as sorbitol): completely non-toxic at the tested concentration
CCCCCCCCCCCCCCCCCCOC(=O)/C=C/C(=O)[O-].[Na+] [Sodium stearyl fumarate]	–	–	–	–	–	–	–	–	EC50 5 min ([2]; 5 min, value calculated using two points, 95% confidence interval and R^2 could not be determined): 56,456 ^[b] mg/L; EC50 15 min ([2]; 15 min of exposure, EC50 calculated from extrapolated data): 12,815 ^[a] (38.84–4,457,999) 0.9221 mg/L; EC50 30 min ([2]; 30 min of exposure, EC50 calculated from extrapolated data): 80,534 ^[a] (2479–2,616,211) 0.8896 mg/L
Magnesium carbonate (heavy)	–	–	–	10.257	–	–	–	65.60 (44.19–97.37) 0.9738 mg/L	EC50 5 min [2, 9]: 109.8 (55.61–216.6) 0.9360 mg/L; EC50 15 min [2, 10]: 86.42 (58.99–126.6) 0.9678 mg/L; EC50 30 min ([2]; 30 min of exposure, 95% confidence interval in brackets, listed as magnesium carbonate): 10 to 100 mg/L; Toxicity Category (Based on EC50, 30 min) ([2]; GHS acute toxicity categories [11]): III ((III) harmful, 10 < EC50 < 100 mg/L)
CCCCc1nc(Cl)c(CO)n1Cc1ccc(-c2ccccc2-c2nn[nH]n2)cc1 [LOS-K, Losartan potassium, reference compound]	583.88 µg/mL	659.02 µg/mL	277 µg/mL	7.750	–	–	–	–	–
CCCCCCCCCCCCOS(=O)(=O)O [Sodium lauryl sulfate (SLS), Sodium lauryl sulfate]	–	–	< 1 µg/mL	6.779	1.37 µg/mL	0.8 µg/mL	< 1 µg/mL	0.5544 (0.1138–2.702) 0.6931 mg/L	LC50 (lethal concentration) [5]: 1 to 13.9 µg/mL
OC[C@H]1O[C@@H](O[C@H]2[C@H](O)[C@@H](O)[C@@H](O)O[C@@H]2CO)[C@H](O)[C@@H](O)[C@H]1O [Lactose monohydrate]	–	–	–	5.113	11700 µg/mL	14000 µg/mL	> 100 µg/mL	–	EC50 ([2]; NRRLB11177, 0.5 h, 30 min of exposure, EC50 calculated from extrapolated data, read-out: EC50 30 min): 16400 µg/mL
CNC[C@H](O)[C@@H](O)[C@H](O)[C@H](O)CO [Meglumine]	–	–	10 to 100 µg/mL	10.830 and ~11	28.6 µg/mL	19.7 µg/mL	10 to 100 µg/mL	18.05 (7.237–45.02) 0.7516 mg/L	–
CCCc1nc2c(C)cc(-c3nc4ccccc4n3C)cc2n1Cc1ccc(-c2ccccc2C(=O)O)cc1 [TEL, Telmisartan, reference compound]	196.52 µg/mL (≈ 382 µM)	99.70 µg/mL (≈ 194 µM)	77.3 µg/mL (≈ 150 µM)	8.036	–	–	–	–	–
